Assay results as given in publication PMC5447021, “TNF Lectin-Like Domain Restores Epithelial Sodium Channel Function in Frameshift Mutants Associated with Pseudohypoaldosteronism Type 1B” (Frontiers in Immunology, 2017).
“Also recorded” adds a separate entry of the source. Marks after values point to notes of the source that are not given here.

How the values were obtained:
Format in all cases: cell-based, human
[1] = system: αS452fs (co-expressed with βγ-ENaC); test: Whole-cell patch clamp, αS452fs + WT βγ; settings: read-out: EC50, solnatide, HEK-293, whole-cell, -100 mV, n = 5, p < 0.01 vs WT
Procedure: (§1) Point mutations of α-, β-, γ- and δ-hENaC and PHA1B frameshift mutations of α-hENaC were prepared with the QuikChange Lightning Site-Directed Mutagenesis Kit (Agilent Technologies, CA, USA). Mutagenic primers were designed individually with the Primer Design Program provided on the producer’s website or for the frameshift mutations the same base changes as reported in patients (see Table 2) were performed. Primers were ordered from Sigma-Aldrich, Vienna, Austria.
(§2) HEK-293 cells were transfected 1 day after cell seeding using X-tremeGENE HP DNA transfection reagent (Roche Diagnostics, Mannheim, Germany) according to the manufacturer’s protocol. A set of WT or mutant αβγ- or δβγ-hENaC, or α-, β-, γ-, or δ-hENaC alone was used, and the ratio of DNA to transfection reagent was 1:3. The expression was highest 48–72 h after transfection.
(§3) Electrophysiological experiments were performed as described in detail by Shabbir et al. ([16]). […] Currents were recorded with the patch clamp method in the whole-cell mode. The chamber contained 1 ml of the bath solution of the following composition (in mM): 145 NaCl, 2.7 KCl, 1.8 CaCl2, 2 MgCl2, 5.5 glucose, and 10 HEPES, adjusted to pH 7.4 with 1 M NaOH solution. Micropipettes were pulled from thin-walled borosilicate glass capillaries (Harvard Apparatus, Holliston, MA, USA) with a DMZ Zeitz Puller to obtain electrode resistances ranging from 2 to 5 MΩ. […]

[2] = system: βE539A,E542A γE548A,E551A-ENaC (βM2γM2); test: Whole-cell patch clamp, βM2γM2-ENaC; settings: HEK-293, 200 nM solnatide
Procedure: as §1, §2, §3

αT482fs = test: Membrane abundance of αT482fs
Procedure: Cell surface biotinylation was performed as previously described ([26]). In brief, A549 cells or transiently transfected HEK-293 cells were grown in 10 cm dishes in 37°C, 5% CO2 incubator in DMEM medium supplemented with 5% FBS. […] Medium was aspirated, and then cells were washed twice with 10 ml ice-cold phosphate-buffered saline (PBS), covered with 2.5 mg EZ-Link Sulfo-NHS-SS-Biotin (Thermo Scientific, Rockford, USA), dissolved in 10 ml ice-cold PBS, and incubated at 4°C with gentle agitation for 30 min. Fifty milliliters of quenching solution were added to cells; then cells were scraped in solution and transferred to fresh 50 ml tube. Cell suspension was centrifuged at 500 × g for 3 min. Supernatant was discarded, and 5 ml of Tris-buffered saline (TBS) was added to the cell pellet. The cell pellet was resuspended and centrifuged at 500 × g for 3 min. Supernatant was discarded and cell pellet was resuspended in lysis buffer containing protease inhibitor cocktail (10 µM pepstatin A, 10 µM phenylmethylsulfonyl fluoride, and 10 µM leupeptin) and transferred to fresh 1.5 ml centrifuge tube. Cell pellet was then homogenized on ice by ultrasonication using 1 s bursts and incubated on ice for at least 30 min. Intact cells and nuclei were pelleted by centrifugation at 10,000 × g for 2 min under cooling conditions. Pellet was then discarded and supernatant was transferred to fresh tube, incubated overnight with 0.5 ml NeutrAvidin Agarose under gentle rotation at 4°C and centrifuged at 500 × g for 5 min under cooling conditions. Supernatant was then discarded and the pellet washed twice with 200 µl lysis buffer. The biotinylated proteins were eluted with 100 µl sodium dodecyl sulfate (SDS) sample buffer (62.5 mM Tris, pH 6.8, 1% SDS, 10% glycerine, 50 mM dithiothreitol) containing 10 µM E64 at 65°C for 10 min. Sample was then centrifuged at 500 × g for 2 min. Pellet was discarded and supernatant subjected to protein electrophoresis and immunoblotting. The biotinylated proteins were separated under reducing conditions by SDS-PAGE using 7.5% SDS gel along with prestained protein marker (cat. #12949 from Cell Signaling). Proteins were then transferred onto a nitrocellulose membrane (UltraCruzTM […], Santa Cruz Biotechnology, TX, USA) by semi-dry blotting at 25 V for 30 min. Unspecific binding sites were blocked by incubating the membrane overnight at 4°C with 3% FBS in PBS supplemented with 0.02% sodium azide. Membrane was then incubated for 90 min with primary antibody (anti-α-hENaC, anti-δ-hENaC, and anti-β-actin from Sigma Aldrich; anti-β- and anti-γ-hENaC from Santa Cruz Biotechnology). Membrane was washed 5× with 10 ml PBS containing 0.1% Tween-20 (PBST), and corresponding horseradish peroxidase-conjugated secondary antibodies (Santa Cruz Biotechnology) were applied. After 90-min incubation, membrane was washed 3× with PBST and once with PBS. Enhanced chemiluminescence (ECL) substrate (Amersham ECL Plus Western Blotting Detection Reagent, GE Healthcare, Vienna, Austria) was used for visualization. Following incubation for 2 min, membranes were exposed to X-ray films (Amersham Hyperfilm ECL, GE Healthcare). Exposed films were scanned and quantified using ImageJ (NIH, MD, USA).
To study α-ENaC protein abundance in plasma membrane cell surface, biotinylation of HEK-293 cells transiently transfected with WT or different PHA1B mutants was followed by SDS-PAGE and immunoblotting. Expression of frameshift mutants varied markedly. […]

SMILES: C[C@@H]1NC(=O)CNC(=O)[C@H](CCC(=O)O)NC(=O)[C@@H]2CCCN2C(=O)[C@H]([C@@H](C)O)NC(=O)[C@H](CCC(=O)O)NC(=O)[C@H](CCCNC(=N)N)NC(=O)[C@H](CCC(N)=O)NC(=O)CNC(=O)[C@@H](N)CSSC[C@@H](C(=O)O)NC(=O)[C@H](Cc2ccc(O)cc2)NC(=O)[C@H](Cc2c[nH]c3ccccc23)NC(=O)[C@@H]2CCCN2C(=O)[C@H](CCCCN)NC(=O)[C@H](C)NC(=O)[C@H](CCC(=O)O)NC1=O [solnatide, L-cysteine, L-cysteinylglycyl-L-glutaminyl-L-arginyl-L-α-glutamyl-L-threonyl-L-prolyl-L-α-glutamylglycyl-L-alanyl-L-α-glutamyl-L-alanyl-L-lysyl-L-prolyl-L-tryptophyl-L-tyrosyl-, cyclic (1→17)-disulfide]
- EC50 [1]: 68.5 ± 4.1 nM
- Effect of solnatide on current (words) ([2]; n = 3): A small increase in the amiloride-sensitive Na^+ current was still observed; also recorded: still able to activate βM2γM2-ENaC (not significant) to an equal extent as WT βγ-ENaC
- Effect of solnatide on current (words) ([2]; n = 3, listed as Solnatide): still increased the amiloride-sensitive sodium current in these mutants
- Membrane abundance (αT482fs; glycosylated αT482fs, 200 nM solnatide, 5 min, n = 4): even more after 5 min of solnatide treatment
- Increase in membrane abundance after PNGase F (αT482fs; αT482fs, 200 nM solnatide, 100 units PNGase F, n = 4): completely abolished in deglycosylated mutants; also recorded: after PNGase F treatment no differences can be observed
- Membrane abundance after solnatide (αT482fs; αT482fs, HEK-293, discussion, no time stated): the membrane abundance increasing even further following exposure to solnatide
- Membrane abundance, solnatide 5 min (αT482fs; αT482fs, 200 nM, 5 min, relative to WT control (=1), own control 4.67 ± 0.27, p < 0.001 vs control, n = 4): 6.23 ± 0.24***
- Membrane abundance, solnatide 10 min (αT482fs; αT482fs, 200 nM, 10 min, relative to WT control (=1), own control 4.67 ± 0.27, n = 4): 4.58 ± 0.30
